Test results reported in patent US9930890B2 (priority 2010, dated 2018).

Key:
[1] = for logp [a]: pH 2.7; for logp [b]: pH 7.8
Phytophthora infestans = type: in vivo; conditions: tomato plants, protective spray, active ingredient concentration 100 ppm, evaluation 7 days after inoculation; 0% = control, 100% = no infection
Plasmopara viticola = experiment: Plasmopara test (grapevine)/protective; type: in vivo; conditions: grapevine young plants, protective spray, active ingredient concentration 10 ppm, evaluation 6 days after inoculation; 0% = control, 100% = no infection
Procedure: Plasmopara Test (Grapevine)/Protective
To produce an appropriate active ingredient formulation, 1 part by weight of active ingredient is mixed with the specified amounts of solvent and emulsifier, and the concentrate is diluted with water to the desired concentration.
To test for protective efficacy, young plants are sprayed with the active ingredient formulation at the stated application rate. After the spray coating has dried on, the plants are inoculated with an aqueous spore suspension of Plasmopara viticola and then remain in an incubation cabin at approx. 20° C. and 100% relative air humidity for 1 day. Subsequently, the plants are placed in a greenhouse at approx. 21° C. and approx. 90% air humidity for 4 days. The plants are then moistened and placed in an incubation cabin for 1 day.
Evaluation follows 6 days after the inoculation. 0% means an efficacy which corresponds to that of the control, whereas an efficacy of 100% means that no infection is observed.
In this test, the following inventive compounds show, at an active ingredient concentration of 10 ppm, an efficacy of 70% or more: […]

SMILES | logp [a] [1] | Eff. % (Phytophthora infestans) [%] | Eff. % (Plasmopara viticola) [%] | logp [b] [1]
CC(=NO)c1cccc(C2CC(c3csc(C4CCN(C(=O)Cn5nc(C(F)(F)F)cc5C)CC4)n3)=NO2)c1 (mixture of isomers) [I-7] | 2.8[a] | 100 | 100 | –
CCON=Cc1ccccc1C1CC(c2csc(C3CCN(C(=O)Cn4nc(C(F)(F)F)cc4C)CC3)n2)=NO1 (mixture of isomers) [I-29] | 4[a] | 100 | 90 | –
CON=Cc1ccccc1C1CC(c2csc(C3CCN(C(=O)Cn4nc(C(F)(F)F)cc4C)CC3)n2)=NO1 (mixture of isomers) [I-34] | 3.7[a] | 100 | 87 | –
CON=Cc1cccc(F)c1C1CC(c2csc(C3CCN(C(=O)Cn4nc(C(F)(F)F)cc4C)CC3)n2)=NO1 (mixture of isomers) [I-118] | 3.61[a], | 95 | 100 | 3.49[b]
C#CCOCc1ccccc1C1CC(c2csc(C3CCN(C(=O)Cn4nc(C(F)(F)F)cc4C)CC3)n2)=NO1 (racemic) [I-46] | 3.43[a] | 94 | 94 | –
CC(=O)OCc1ccccc1C1CC(c2csc(C3CCN(C(=O)Cn4nc(C(F)(F)F)cc4C)CC3)n2)=NO1 (racemic) [I-47] | 3.31[a] | 94 | 90 | –
C#CCOCc1ccccc1C1CC(c2csc(C3CCN(C(=O)Cn4nc(C(F)F)cc4C(F)F)CC3)n2)=NO1 (racemic) [I-53] | 3.31[a] | 94 | 96 | –
Cc1ccc(Cl)cc1NC(=O)N1CCC(c2nc(C3=NOC(c4c(Cl)cccc4OS(C)(=O)=O)C3)cs2)CC1 (racemic) [I-54] | 3.54[a], | 94 | 100 | 3.43[b]
CC(=O)OCc1ccccc1C1CC(c2csc(C3CCN(C(=O)Cn4nc(C(F)F)cc4C(F)F)CC3)n2)=NO1 (racemic) [I-55] | 3.22[a] | 94 | 92 | –
COCCS(=O)(=O)Cc1ccccc1C1CC(c2csc(C3CCN(C(=O)Cn4nc(C(F)F)cc4C(F)F)CC3)n2)=NO1 (racemic) [I-57] | 2.74[a] | 94 | 90 | –
CC(=NO)c1ccccc1C1CC(c2csc(C3CCN(C(=O)Cn4nc(C(F)(F)F)cc4C)CC3)n2)=NO1 (centres unmarked) [I-40, 1-[4-(4-{5-[2-(N-Hydroxyethanimidoyl)phenyl]-4,5-dihydro-1,2-phenyloxazol-3-yl}-1,3-thiazol-2-yl)piperidin-1-yl]-2-[5-methyl-3-(trifluoromethyl)-1H-pyrazol-1-yl]ethanone] | 2.92[a] | 100 | 90 | –
N#CCOc1ccccc1C1CC(c2csc(C3CCN(C(=O)Cn4nc(C(F)F)cc4C(F)F)CC3)n2)=NO1 (centres unmarked) [I-63] | 3[a], | 94 | 100 | 2.91[b]
O=C(Cn1nc(C(F)F)cc1C(F)F)N1CCC(c2nc(C3=NOC(c4ccccc4OS(=O)(=O)C4CC4)C3)cs2)CC1 (centres unmarked) [I-64] | 3.24[a], | 100 | 100 | 3.32[b]
Cc1ccc(C)c(NC(=O)N2CCC(c3nc(C4=NOC(c5ccccc5OS(C)(=O)=O)C4)cs3)CC2)c1 (centres unmarked) [I-74] | 3.08[a], | 100 | 100 | 3.03[b]
Cc1cc(C(F)F)nn1CC(=O)N1CCC(c2nc(C3=NOC(c4ccccc4OCC#N)C3)cs2)CC1 (centres unmarked) [I-76] | 2.7[a], | 100 | 93 | 2.62[b]
CCS(=O)(=O)Oc1cccc(C2CC(c3csc(C4CCN(C(=O)Cn5nc(C(F)F)cc5C(F)F)CC4)n3)=NO2)c1 (centres unmarked) [I-77] | 3.08[a], | 98 | 93 | 2.99[b]
Cc1cc(C(F)(F)F)nn1CC(=O)N1CCC(c2nc(C3=NOC(c4c(Cl)cccc4OCC#N)C3)cs2)CC1 (centres unmarked) [I-78] | 3.31[a], | 80 | 97 | 3.23[b]
N#CCOc1ccc(C2CC(c3csc(C4CCN(C(=O)Cn5nc(C(F)F)cc5C(F)F)CC4)n3)=NO2)cc1 (centres unmarked) [I-81] | 2.89[a], | 100 | 99 | 2.8[b]
C/C=C/C(=O)Oc1ccccc1C1CC(c2csc(C3CCN(C(=O)Cn4nc(C(F)F)cc4C(F)F)CC3)n2)=NO1 (centres unmarked) [I-82] | 3.46[a], | 70 | 94 | 3.37[b]

SMILES | logp [a] [1] | Eff. % (Phytophthora infestans) [%] | Eff. % (Plasmopara viticola) [%] | logp [b] [1]
O=C(Cn1nc(C(F)F)cc1C(F)F)N1CCC(c2nc(C3=NOC(c4cccc(OS(=O)(=O)C5CC5)c4)C3)cs2)CC1 (centres unmarked) [I-83] | 3.17[a], | 98 | 94 | 3.07[b]
O=C(Cn1nc(C(F)F)cc1C(F)F)N1CCC(c2nc(C3=NOC(c4cc(F)ccc4OS(=O)(=O)C4CC4)C3)cs2)CC1 (centres unmarked) [I-84] | 3.32[a], | 90 | 100 | 3.35[b]
CS(=O)(=O)Oc1c(F)cccc1C1CC(c2csc(C3CCN(C(=O)Cn4nc(C(F)F)cc4C(F)F)CC3)n2)=NO1 (centres unmarked) [I-85] | 2.97[a], | 75 | 100 | 2.91[b]
Cc1cc(C(F)(F)F)nn1CC(=O)N1CCC(c2nc(C3=NOC(c4c(F)cccc4OCC#N)C3)cs2)CC1 (centres unmarked) [I-86] | 3.05[a], | 75 | 99 | 2.94[b]
N#CCCn1cccc1C1CC(c2csc(C3CCN(C(=O)Cn4nc(C(F)F)cc4C(F)F)CC3)n2)=NO1 (centres unmarked) [I-87] | 2.71[a], | 80 | 95 | 2.64[b]
CS(=O)(=O)Oc1cccc(Cl)c1C1CC(c2csc(C3CCN(C(=O)Cn4nc(C(F)F)cc4C(F)F)CC3)n2)=NO1 (centres unmarked) [I-102] | 3.2[a], | 75 | 100 | 3.09[b]
Cc1cc(C(F)(F)F)nn1CC(=O)N1CCC(c2nc(C3=NOC(c4c(Cl)cccc4OS(C)(=O)=O)C3)cs2)CC1 (centres unmarked) [I-103] | 3.28[a], | 80 | 100 | 3.2[b]
O=CNc1ccccc1C1CC(c2csc(C3CCN(C(=O)Cn4nc(C(F)F)cc4C(F)F)CC3)n2)=NO1 (centres unmarked) [I-108] | 2.42[a], | 100 | 93 | 2.32[b]
CSCOc1ccccc1C1CC(c2csc(C3CCN(C(=O)Cn4nc(C(F)F)cc4C(F)F)CC3)n2)=NO1 (centres unmarked) [I-112] | 3.49[a], | 94 | 100 | 3.56[b]
N#CCOc1cccc(F)c1C1CC(c2csc(C3CCN(C(=O)Cn4nc(C(F)F)cc4C(F)F)CC3)n2)=NO1 (centres unmarked) [I-113] | 2.87[a], | 85 | 100 | 2.88[b]
Cc1cc(C(F)(F)F)nn1CC(=O)N1CCC(c2nc(C3=NOC(c4cccc(F)c4OS(=O)(=O)C4CC4)C3)cs2)CC1 (centres unmarked) [I-114] | 3.43[a], | 94 | 100 | 3.42[b]
O=C(Cn1nc(C(F)F)cc1C(F)F)N1CCC(c2nc(C3=NOC(c4ccccc4OS(=O)(=O)C(F)(F)F)C3)cs2)CC1 (centres unmarked) [I-115] | 3.92[a], | 88 | 100 | 3.92[b]
C=CC(=O)Oc1ccccc1C1CC(c2csc(C3CCN(C(=O)Cn4nc(C(F)F)cc4C(F)F)CC3)n2)=NO1 (centres unmarked) [I-116] | 3.21[a], | 98 | 100 | 3.15[b]
C#CCN(C=O)c1ccccc1C1CC(c2csc(C3CCN(C(=O)Cn4nc(C(F)F)cc4C(F)F)CC3)n2)=NO1 (centres unmarked) [I-117] | 2.65[a], | 79 | 96 | 2.67[b]
CCS(=O)(=O)Oc1ccccc1C1CC(c2csc(C3CCN(C(=O)Cn4nc(C(F)(F)F)cc4C)CC3)n2)=NO1 (centres unmarked) [I-119] | 3.19[a], | 89 | 100 | 3.21[b]
CSCOc1ccccc1C1CC(c2csc(C3CCN(C(=O)Cn4nc(C(F)(F)F)cc4C)CC3)n2)=NO1 (centres unmarked) [I-120] | 3.59[a], | 89 | 95 | 3.59[b]
N#CCN(C=O)c1ccccc1C1CC(c2csc(C3CCN(C(=O)Cn4nc(C(F)F)cc4C(F)F)CC3)n2)=NO1 (centres unmarked) [I-121] | 2.62[a], | 100 | 98 | 2.55[b]
O=CNc1ccccc1C1CC(c2csc(C3CCN(C(=O)Nc4cc(C(F)F)ccc4C(F)F)CC3)n2)=NO1 (centres unmarked) [I-122] | 2.63[a], | 97 | 89 | 2.54[b]
O=CNc1ccccc1C1CC(c2csc(C3CCN(C(=O)Cc4cc(C(F)F)ccc4C(F)F)CC3)n2)=NO1 (centres unmarked) [I-123] | 2.74[a], | 100 | 73 | 2.64[b]
